# System: not listed separately
# Assay: Inhibition of 5-FAM peptide binding to Hepatitis C virus full length NS3/4A helicase after 30 mins by FRET assay
# Design: species or system Hepacivirus hominis
row,IC50 [µM],Structure (SMILES)
1,34,NCc1cc(F)c(Oc2ccccc2)c(F)c1
2,130,NCc1cccc(Oc2ccccc2)c1
3,41,NCc1ccc(Oc2ccccc2)c(Cl)c1
4,500,NCc1ccc(Oc2ccccc2)cc1
5,20,NCc1ccc(F)c(Oc2ccccc2)c1F
6,180,NCc1ccc(C(=O)c2ccccc2)cc1

# Biological target: RAC-beta serine/threonine-protein kinase (Homo sapiens, UniProt P31751)
# Sequence (P31751 whole entry): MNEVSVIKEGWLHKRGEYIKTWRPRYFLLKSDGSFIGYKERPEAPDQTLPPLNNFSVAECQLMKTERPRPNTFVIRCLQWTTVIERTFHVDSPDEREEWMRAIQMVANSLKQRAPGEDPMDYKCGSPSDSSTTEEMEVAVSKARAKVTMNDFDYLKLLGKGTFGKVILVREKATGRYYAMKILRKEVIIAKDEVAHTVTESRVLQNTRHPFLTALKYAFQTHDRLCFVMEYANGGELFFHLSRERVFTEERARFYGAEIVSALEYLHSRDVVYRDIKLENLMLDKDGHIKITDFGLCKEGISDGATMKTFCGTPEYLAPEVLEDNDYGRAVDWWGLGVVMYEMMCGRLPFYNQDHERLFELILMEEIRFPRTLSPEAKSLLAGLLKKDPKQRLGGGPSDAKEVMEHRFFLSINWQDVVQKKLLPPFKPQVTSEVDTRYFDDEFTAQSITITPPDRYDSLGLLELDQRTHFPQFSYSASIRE
# Assay: Inhibition of PKBbeta (unknown origin) in presence of [33P-gamma]ATP by scintillation counting
row,IC50 [µM],Structure (SMILES)
1,72,Cc1n[nH]c(C)c1-c1ccccc1
2,660,Cc1n[nH]c(N)c1-c1ccccc1
